Three compounds from ChEMBL document CHEMBL4265874 (Eur J Med Chem, 2017) can be followed below.

The target of data set [1] is Proto-oncogene tyrosine-protein kinase ROS (Homo sapiens, UniProt P08922, G2032R).
A short description of data set [2]: in vivo. The note with it: rat, CSF / free plasma.
Description: Ratio of AUC in CSF to free plasma in rat
The nature of data set [3]: in vivo. Conditions: rat, brain / plasma.
Description: Ratio of fAUC in brain to plasma in rat
The nature of data set [4]: in vitro. Conditions: dog, MDCK.
Description: (§1) Intrinsic absorptive permeability from apical side to basolateral side of dog RRCK cells
A short description of data set [5]: in vitro. The note with it: dog, MDCK. The source holds these as a separate data set.
Description: (§2) Intrinsic absorptive permeability from basolateral side to apical side of dog RRCK cells
The conditions of data set [6]: dog, mdckii-le.
Description: as §2
The conditions of data set [7]: dog, mdckii-le. This is another data set of the same source.
Description: as §1
Data set [8] in a line: physchem. Conditions: octanol/water, pH 7.4.
The nature of data set [9]: in vitro. The note with it: human, liver microsomes. A general note: Microsomes from liver hold many membrane-bound enzymes, among them those of drug oxidation.
Description: Intrinsic clearance in human liver microsomes

Proto-oncogene tyrosine-protein kinase ROS, sequence (P08922 28-2347 G2032R limits assumed): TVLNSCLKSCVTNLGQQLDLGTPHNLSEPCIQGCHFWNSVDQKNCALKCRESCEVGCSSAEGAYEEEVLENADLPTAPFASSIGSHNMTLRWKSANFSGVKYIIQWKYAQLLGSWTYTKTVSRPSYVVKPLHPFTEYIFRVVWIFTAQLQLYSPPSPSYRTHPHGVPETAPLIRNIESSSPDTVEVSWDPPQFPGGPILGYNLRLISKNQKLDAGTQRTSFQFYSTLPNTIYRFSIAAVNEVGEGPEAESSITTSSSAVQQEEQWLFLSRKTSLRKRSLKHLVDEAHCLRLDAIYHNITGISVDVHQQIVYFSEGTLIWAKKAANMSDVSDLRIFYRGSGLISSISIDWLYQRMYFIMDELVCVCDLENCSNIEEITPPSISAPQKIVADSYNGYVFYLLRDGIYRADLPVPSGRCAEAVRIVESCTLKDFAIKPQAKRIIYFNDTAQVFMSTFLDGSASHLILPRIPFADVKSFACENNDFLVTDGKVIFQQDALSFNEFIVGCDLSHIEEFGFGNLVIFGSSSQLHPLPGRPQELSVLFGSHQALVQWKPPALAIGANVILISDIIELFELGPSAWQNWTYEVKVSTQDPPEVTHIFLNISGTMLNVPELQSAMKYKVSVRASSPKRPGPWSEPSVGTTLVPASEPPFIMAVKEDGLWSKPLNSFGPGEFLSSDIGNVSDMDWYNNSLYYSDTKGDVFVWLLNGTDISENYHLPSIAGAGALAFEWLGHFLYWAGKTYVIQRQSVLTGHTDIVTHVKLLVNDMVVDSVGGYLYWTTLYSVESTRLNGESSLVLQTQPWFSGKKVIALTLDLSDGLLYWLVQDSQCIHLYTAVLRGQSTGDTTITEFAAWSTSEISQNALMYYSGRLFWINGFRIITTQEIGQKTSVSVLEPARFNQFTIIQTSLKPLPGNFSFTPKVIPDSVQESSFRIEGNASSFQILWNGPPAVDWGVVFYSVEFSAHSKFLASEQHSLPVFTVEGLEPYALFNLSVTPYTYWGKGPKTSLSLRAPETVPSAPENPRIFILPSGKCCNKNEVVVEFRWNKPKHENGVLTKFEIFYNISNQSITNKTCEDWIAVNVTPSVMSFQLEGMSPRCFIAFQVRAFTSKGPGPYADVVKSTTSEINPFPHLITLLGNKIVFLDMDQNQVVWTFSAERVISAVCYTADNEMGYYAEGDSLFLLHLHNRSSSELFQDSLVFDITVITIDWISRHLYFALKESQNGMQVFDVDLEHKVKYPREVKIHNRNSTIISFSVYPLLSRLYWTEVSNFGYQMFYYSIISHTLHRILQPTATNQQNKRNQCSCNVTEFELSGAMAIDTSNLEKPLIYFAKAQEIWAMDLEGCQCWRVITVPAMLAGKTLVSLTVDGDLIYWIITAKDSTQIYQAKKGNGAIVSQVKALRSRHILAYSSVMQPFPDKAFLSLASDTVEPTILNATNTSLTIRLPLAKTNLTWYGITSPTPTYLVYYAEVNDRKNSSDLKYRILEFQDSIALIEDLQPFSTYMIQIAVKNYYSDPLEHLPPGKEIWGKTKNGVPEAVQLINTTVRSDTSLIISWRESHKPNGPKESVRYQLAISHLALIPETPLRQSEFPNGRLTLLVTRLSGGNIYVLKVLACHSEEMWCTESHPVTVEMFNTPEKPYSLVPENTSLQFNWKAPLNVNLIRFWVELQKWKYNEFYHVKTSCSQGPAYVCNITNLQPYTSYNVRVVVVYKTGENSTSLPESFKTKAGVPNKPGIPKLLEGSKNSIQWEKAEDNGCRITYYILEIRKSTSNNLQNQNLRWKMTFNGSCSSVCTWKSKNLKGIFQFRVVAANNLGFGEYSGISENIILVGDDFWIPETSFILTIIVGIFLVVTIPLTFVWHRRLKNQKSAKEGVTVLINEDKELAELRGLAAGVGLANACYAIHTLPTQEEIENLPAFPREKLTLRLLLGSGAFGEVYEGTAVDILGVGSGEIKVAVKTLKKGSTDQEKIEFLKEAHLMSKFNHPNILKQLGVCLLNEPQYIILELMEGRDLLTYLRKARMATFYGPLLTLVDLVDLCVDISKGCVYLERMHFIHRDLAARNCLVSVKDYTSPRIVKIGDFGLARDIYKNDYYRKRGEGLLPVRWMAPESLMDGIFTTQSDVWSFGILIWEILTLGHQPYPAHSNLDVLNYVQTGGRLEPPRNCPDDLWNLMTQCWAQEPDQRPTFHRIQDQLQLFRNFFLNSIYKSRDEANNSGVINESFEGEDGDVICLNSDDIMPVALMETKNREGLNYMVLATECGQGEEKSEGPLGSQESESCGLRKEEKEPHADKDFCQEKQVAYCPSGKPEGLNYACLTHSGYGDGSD

`CCc1cc2c(cc1N1CCC(N3CCOCC3)CC1)C(C)(C)c1[nH]c3cc(C#N)ccc3c1C2=O` [ALECTINIB] gave an inhibitory constant (Ki) in data set [1] of more than 3 µM.
As to `C[C@H]1Oc2cc(cnc2N)-c2c(nn(C)c2C#N)CN(C)C(=O)c2ccc(F)cc21` [LORLATINIB], the values for the Kp uu in [2] and in data set [3] were 0.31 and 0.21, respectively. This compound also registered a Papp A→B in [4] of 19.3 ×10⁻⁶ cm/s. Moreover, the Papp B→A in data set [5] amounted to 28 ×10⁻⁶ cm/s.
In the case of `Cc1[nH][n+](C)c2c1-c1cnc(N)c(c1)O[C@H](C)c1cc(F)ccc1C(=O)N(C)C2`, the apparent permeability (Papp) in data set [6] was determined as 28.3 ×10⁻⁶ cm/s; in [7] it was 8.1 ×10⁻⁶ cm/s. Also, the logD in data set [8] amounted to 2.2. In addition, the CLint scaled in [9] worked out at 8.6 mL/min/kg.

For orientation: Ki means the dissociation constant of the complex between target and ligand, obtained from inhibition or displacement. High values mean lower affinity, low ones higher affinity. As a reminder, the Papp A→B is how fast a substance crosses the layer from the apical side. A higher Papp A→B goes with ready permeation. The Papp B→A is the apparent permeability from the basolateral to the apical side of a cell layer. Usually Papp stands for the rate of passage across a membrane or cell layer, normalised by area and donor concentration. The term logD denotes the decadic logarithm of the distribution of all forms, ionised or not, between an organic phase and buffer at a given pH. Read a low logD as a more hydrophilic compound. By CLint scaled is commonly meant the capacity of the preparation to metabolise the compound, expressed as a volume cleared per time. A higher CLint scaled goes with rapid turnover.
